In paper PMC5218480 (PLoS ONE, 2017):

System: MV-4-11 cells
Assay: Gene expression microarray analysis (Affymetrix PrimeView) and GSEA
Type: cell-based, human
Design: RFU PODN (11730768_x_at) / Fold change /veh PODN (11730768_x_at) / RFU LINC00158 (11744669_a_at) / Fold change /veh LINC00158 (11744669_a_at) / RFU DUSP10 (11751237_a_at) / Fold change /veh DUSP10 (11751237_a_at) / RFU ID3 (11757404_x_at) / Fold change /veh ID3 (11757404_x_at) / RFU PLEKHG5 (11737974_s_at) / Fold change /veh PLEKHG5 (11737974_s_at) / RFU LRRC4B (11730491_at) / Fold change /veh LRRC4B (11730491_at) / RFU GIMAP4 (11747438_a_at) / Fold change /veh GIMAP4 (11747438_a_at) / RFU KRT8 (11758183_x_at) / Fold change /veh KRT8 (11758183_x_at) / RFU CNN1 (11734310_a_at) / Fold change /veh CNN1 (11734310_a_at) / RFU VPS37D (11726825_at) / Fold change /veh VPS37D (11726825_at) / RFU C10orf10 (11716522_x_at) / Fold change /veh C10orf10 (11716522_x_at) / RFU KIR2DL2 /// KIR2DL4 /// KIR2DL5A /// KIR2DL5B /// KIR2DS1 /// KIR2DS2 /// KIR2DS3 /// KIR2DS4 /// KIR3DL3 /// KIR3DL3 /// KIR3DS1 (11738374_at) / Fold change /veh KIR2DL2 /// KIR2DL4 /// KIR2DL5A /// KIR2DL5B /// KIR2DS1 /// KIR2DS2 /// KIR2DS3 /// KIR2DS4 /// KIR3DL3 /// KIR3DL3 /// KIR3DS1 (11738374_at) / RFU C1QL1 (11718748_at) / Fold change /veh C1QL1 (11718748_at) / RFU TMPRSS4 (11747572_a_at) / Fold change /veh TMPRSS4 (11747572_a_at) / RFU HAMP (11756126_x_at) / Fold change /veh HAMP (11756126_x_at) / RFU RNFT2 (11725882_a_at) / Fold change /veh RNFT2 (11725882_a_at) / RFU NR4A2 (11747474_a_at) / Fold change /veh NR4A2 (11747474_a_at) / RFU ABCC12 (11746883_a_at) / Fold change /veh ABCC12 (11746883_a_at) / RFU TMEM136 (11760407_x_at) / Fold change /veh TMEM136 (11760407_x_at) / RFU CLDN22 /// WWC2 (11732394_at) / Fold change /veh CLDN22 /// WWC2 (11732394_at) / RFU HLA-DPB1 (11760878_x_at) / Fold change /veh HLA-DPB1 (11760878_x_at) / RFU SPINT1 (11716480_a_at) / Fold change /veh SPINT1 (11716480_a_at) / RFU GAP43 (11754022_s_at) / Fold change /veh GAP43 (11754022_s_at) / RFU A4GNT (11735810_at) / Fold change /veh A4GNT (11735810_at) / RFU PRB3 (11715151_x_at) / Fold change /veh PRB3 (11715151_x_at) / RFU TUBB4B (11761932_at) / Fold change /veh TUBB4B (11761932_at) / RFU CAPN14 (11732068_a_at) / Fold change /veh CAPN14 (11732068_a_at) / RFU TMCC2 (11721928_a_at) / Fold change /veh TMCC2 (11721928_a_at) / RFU IRGQ (11745062_a_at) / Fold change /veh IRGQ (11745062_a_at) / RFU FAM174B (11720279_a_at) / Fold change /veh FAM174B (11720279_a_at) / RFU TMPRSS4 (11748680_a_at) / Fold change /veh TMPRSS4 (11748680_a_at) / RFU FAM212B (11763350_a_at) / Fold change /veh FAM212B (11763350_a_at) / RFU PLEKHG5 (11743358_a_at) / Fold change /veh PLEKHG5 (11743358_a_at) / RFU ZSCAN30 (11745921_a_at) / Fold change /veh ZSCAN30 (11745921_a_at) / RFU CMKLR1 (11741424_a_at) / Fold change /veh CMKLR1 (11741424_a_at) / RFU LOC101060620 /// MAPK8IP1 (11723275_at) / Fold change /veh LOC101060620 /// MAPK8IP1 (11723275_at) / RFU SPTSSB (11747773_x_at) / Fold change /veh SPTSSB (11747773_x_at) / RFU PRSS12 (11739890_at) / Fold change /veh PRSS12 (11739890_at) / RFU BIN1 (11741810_x_at) / Fold change /veh BIN1 (11741810_x_at) / RFU WNT11 (11732464_a_at) / Fold change /veh WNT11 (11732464_a_at) / RFU C10orf10 (11716521_a_at) / Fold change /veh C10orf10 (11716521_a_at) / RFU C5orf56 (11738089_at) / Fold change /veh C5orf56 (11738089_at) / RFU CYB561 (11721691_x_at) / Fold change /veh CYB561 (11721691_x_at) / RFU ANKRD19P (11752326_a_at) / Fold change /veh ANKRD19P (11752326_a_at) / RFU OR2T12 /// OR2T33 /// OR2T8 (11738714_s_at) / Fold change /veh OR2T12 /// OR2T33 /// OR2T8 (11738714_s_at) / RFU VCAN (11748164_a_at) / Fold change /veh VCAN (11748164_a_at) / RFU JSRP1 (11732532_at) / Fold change /veh JSRP1 (11732532_at) / RFU KRTAP10-11 (11738290_x_at) / Fold change /veh KRTAP10-11 (11738290_x_at) / RFU MYO3A (11730013_a_at) / Fold change /veh MYO3A (11730013_a_at) / RFU EBF3 (11725865_a_at) / Fold change /veh EBF3 (11725865_a_at) / RFU CAMK2N1 (11719241_x_at) / Fold change /veh CAMK2N1 (11719241_x_at) / RFU C5orf56 (11738088_a_at) / Fold change /veh C5orf56 (11738088_a_at) / RFU OLFML3 (11715873_a_at) / Fold change /veh OLFML3 (11715873_a_at) / RFU LOC100653217 /// NTM (11731650_a_at) / Fold change /veh LOC100653217 /// NTM (11731650_a_at) / RFU MAPK11 (11762145_a_at) / Fold change /veh MAPK11 (11762145_a_at) / RFU FIZ1 (11724087_x_at) / Fold change /veh FIZ1 (11724087_x_at) / RFU OASL (11726364_x_at) / Fold change /veh OASL (11726364_x_at) / RFU SOX15 (11748057_x_at) / Fold change /veh SOX15 (11748057_x_at) / RFU CD79A (11719716_a_at) / Fold change /veh CD79A (11719716_a_at) / RFU HIST1H1D (11736915_at) / Fold change /veh HIST1H1D (11736915_at) / RFU CASKIN2 (11723855_a_at) / Fold change /veh CASKIN2 (11723855_a_at) / RFU LOC730098 (11760151_x_at) / Fold change /veh LOC730098 (11760151_x_at) / RFU OR4N2 (11742367_at) / Fold change /veh OR4N2 (11742367_at) / RFU PRRT2 (11749266_a_at) / Fold change /veh PRRT2 (11749266_a_at) / RFU SNX32 (11753110_a_at) / Fold change /veh SNX32 (11753110_a_at) / RFU CDHR5 (11726645_a_at) / Fold change /veh CDHR5 (11726645_a_at) / RFU RCAN1 (11760418_a_at) / Fold change /veh RCAN1 (11760418_a_at) / RFU FAM167A (11723789_a_at) / Fold change /veh FAM167A (11723789_a_at) / RFU FAM26E (11764081_at) / Fold change /veh FAM26E (11764081_at) / RFU ISYNA1 (11749810_s_at) / Fold change /veh ISYNA1 (11749810_s_at) / RFU ACY1 (11761880_at) / Fold change /veh ACY1 (11761880_at) / RFU 11764098_at / Fold change /veh 11764098_at / RFU SAMD14 (11745864_x_at) / Fold change /veh SAMD14 (11745864_x_at) / RFU NPB (11741838_a_at) / Fold change /veh NPB (11741838_a_at) / RFU TMPRSS6 (11731388_a_at) / Fold change /veh TMPRSS6 (11731388_a_at) / RFU KRTAP10-2 (11738614_at) / Fold change /veh KRTAP10-2 (11738614_at) / RFU ARHGAP8 /// PRR5-ARHGAP8 (11727945_x_at) / Fold change /veh ARHGAP8 /// PRR5-ARHGAP8 (11727945_x_at) / RFU KRTAP5-7 /// NADSYN1 (11734609_at) / Fold change /veh KRTAP5-7 /// NADSYN1 (11734609_at) / RFU RASL12 (11751679_a_at) / Fold change /veh RASL12 (11751679_a_at) / RFU CDKN2B (11736163_a_at) / Fold change /veh CDKN2B (11736163_a_at) / RFU PRF1 (11729649_at) / Fold change /veh PRF1 (11729649_at) / RFU, ZNF638 /// ZNF638-IT1 / Fold change vs veh, ZNF638 /// ZNF638-IT1 / RFU, PANK3 / Fold change vs veh, PANK3 / RFU, SH3YL1 / Fold change vs veh, SH3YL1 / RFU, ZEB2 / Fold change vs veh, ZEB2 / RFU, NRIP1 / Fold change vs veh, NRIP1 / RFU, PTTG1IP / Fold change vs veh, PTTG1IP / RFU, CAPN2 / Fold change vs veh, CAPN2 / RFU, MED14 / Fold change vs veh, MED14 / RFU, SNORA58 / Fold change vs veh, SNORA58 / RFU, C1orf63 / Fold change vs veh, C1orf63 / RFU, LRRFIP1 / Fold change vs veh, LRRFIP1 / RFU, NDUFAF7 / Fold change vs veh, NDUFAF7 / RFU, SLC12A2 / Fold change vs veh, SLC12A2 / RFU, IBTK / Fold change vs veh, IBTK / RFU, ESF1 / Fold change vs veh, ESF1 / Fold change vs veh, TMEM50B / RFU, TAOK1 / Fold change vs veh, TAOK1 / RFU, ACBD3 / Fold change vs veh, ACBD3 / RFU, TMA16 / Fold change vs veh, TMA16 / RFU, RWDD3 / Fold change vs veh, RWDD3 / RFU, BCAT1 / Fold change vs veh, BCAT1 / RFU, EDEM3 / Fold change vs veh, EDEM3 / RFU, TMEM33 / Fold change vs veh, TMEM33 / RFU, WDR75 / Fold change vs veh, WDR75 / RFU, AHCTF1 / Fold change vs veh, AHCTF1 / RFU, TFRC / Fold change vs veh, TFRC / RFU, ZDHHC17 / Fold change vs veh, ZDHHC17 / RFU, NOM1 / Fold change vs veh, NOM1 / RFU, ARL8B / Fold change vs veh, ARL8B / RFU, ZBTB11 / Fold change vs veh, ZBTB11 / RFU, TAMM41 / Fold change vs veh, TAMM41 / RFU, KIAA1704 /// LOC100996395 / Fold change vs veh, KIAA1704 /// LOC100996395 / RFU, ING1 / Fold change vs veh, ING1 / RFU, TRMT61B / Fold change vs veh, TRMT61B / RFU, FUBP3 / Fold change vs veh, FUBP3 / RFU, TP53 / Fold change vs veh, TP53 / RFU, TNKS2 / Fold change vs veh, TNKS2 / RFU, ZFP14 / Fold change vs veh, ZFP14 / RFU, ACTR2 / Fold change vs veh, ACTR2 / RFU, PPP3R1 / Fold change vs veh, PPP3R1 / RFU, PIK3R1 / Fold change vs veh, PIK3R1 / RFU, HNRNPA1 / Fold change vs veh, HNRNPA1 / RFU, RNF170 / Fold change vs veh, RNF170 / RFU, ZNF28 / Fold change vs veh, ZNF28 / RFU, RNGTT / Fold change vs veh, RNGTT / RFU, OGT / Fold change vs veh, OGT / RFU, BRD1 / Fold change vs veh, BRD1 / RFU, MARS / Fold change vs veh, MARS / RFU, ZNF655 / Fold change vs veh, ZNF655 / RFU, FAHD1 / Fold change vs veh, FAHD1 / RFU, BDP1 / Fold change vs veh, BDP1 / RFU, LRRCC1 / Fold change vs veh, LRRCC1 / RFU, ARID1A / Fold change vs veh, ARID1A / RFU, ZNF146 / Fold change vs veh, ZNF146 / RFU, ZNF330 / Fold change vs veh, ZNF330 / RFU, GPN3 / Fold change vs veh, GPN3 / RFU, C9orf123 / Fold change vs veh, C9orf123 / RFU, N4BP2L2 / Fold change vs veh, N4BP2L2 / RFU, ARFIP1 / Fold change vs veh, ARFIP1 / RFU, FAM179B / Fold change vs veh, FAM179B / RFU, BCL10 / Fold change vs veh, BCL10 / RFU, UHRF1BP1L / Fold change vs veh, UHRF1BP1L / RFU, BET1 / Fold change vs veh, BET1 / RFU, CNOT2 / Fold change vs veh, CNOT2 / RFU, ZNF268 / Fold change vs veh, ZNF268 / Fold change vs veh, ZNF507 / RFU, DGCR2 / Fold change vs veh, DGCR2 / RFU, WDSUB1 / Fold change vs veh, WDSUB1 / Fold change vs veh, HSP90B1 /// MIR3652 / RFU, ADSS / Fold change vs veh, ADSS / RFU, GK / Fold change vs veh, GK / RFU, ZNF148 / Fold change vs veh, ZNF148 / RFU, TAF9 / Fold change vs veh, TAF9 / RFU, SLC1A5 / Fold change vs veh, SLC1A5 / RFU, SLMO2 / Fold change vs veh, SLMO2 / RFU, ABCC4 / Fold change vs veh, ABCC4 / RFU, LOC101060439 /// RAP1B / Fold change vs veh, LOC101060439 /// RAP1B / RFU, RFX7 / Fold change vs veh, RFX7 / RFU, GTPBP10 / Fold change vs veh, GTPBP10 / RFU, CNEP1R1 / Fold change vs veh, CNEP1R1 / RFU, BIVM-ERCC5 /// ERCC5 / Fold change vs veh, BIVM-ERCC5 /// ERCC5 / RFU, ILF3 / Fold change vs veh, ILF3 / RFU 11762660_at / Fold change /veh 11762660_at / RFU VCAN (11757783_s_at) / Fold change /veh VCAN (11757783_s_at) / RFU DDX43 (11728927_at) / Fold change /veh DDX43 (11728927_at) / RFU KRT8 (11758188_x_at) / Fold change /veh KRT8 (11758188_x_at) / RFU NKD1 (11759106_at) / Fold change /veh NKD1 (11759106_at) / RFU SRD5A1 (11742802_a_at) / Fold change /veh SRD5A1 (11742802_a_at) / RFU TPSAB1 /// TPSB2 (11721975_s_at) / Fold change /veh TPSAB1 /// TPSB2 (11721975_s_at) / RFU GSTM3 (11746129_a_at) / Fold change /veh GSTM3 (11746129_a_at) / RFU IL23R (11737362_x_at) / Fold change /veh IL23R (11737362_x_at) / RFU TMEM51 (11727254_a_at) / Fold change /veh TMEM51 (11727254_a_at) / RFU PIWIL2 (11732686_x_at) / Fold change /veh PIWIL2 (11732686_x_at) / RFU ORM1 (11744905_x_at) / Fold change /veh ORM1 (11744905_x_at) / RFU CCDC152 (11743942_at) / Fold change /veh CCDC152 (11743942_at) / RFU ECM1 (11717891_a_at) / Fold change /veh ECM1 (11717891_a_at) / RFU IL23R (11748794_a_at) / Fold change /veh IL23R (11748794_a_at) / RFU TNFAIP8L3 (11732012_x_at) / Fold change /veh TNFAIP8L3 (11732012_x_at) / RFU MBOAT4 (11741988_at) / Fold change /veh MBOAT4 (11741988_at) / RFU 11764193_at / Fold change /veh 11764193_at / RFU TMEM53 (11763286_at) / Fold change /veh TMEM53 (11763286_at) / RFU MAGEB2 (11727129_at) / Fold change /veh MAGEB2 (11727129_at) / RFU TMEM200A (11744735_a_at) / Fold change /veh TMEM200A (11744735_a_at) / RFU CCDC152 (11751479_a_at) / Fold change /veh CCDC152 (11751479_a_at) / RFU FAM211A (11726209_a_at) / Fold change /veh FAM211A (11726209_a_at) / RFU RGS16 (11746705_a_at) / Fold change /veh RGS16 (11746705_a_at) / RFU VCAN (11755009_s_at) / Fold change /veh VCAN (11755009_s_at) / RFU RHOB (11743442_s_at) / Fold change /veh RHOB (11743442_s_at) / RFU RGS16 (11720943_a_at) / Fold change /veh RGS16 (11720943_a_at) / RFU RGS16 (11720944_at) / Fold change /veh RGS16 (11720944_at) / RFU, VPS4B / Fold change vs veh, VPS4B / RFU, CREB1 / Fold change vs veh, CREB1 / RFU, DNAJC13 / Fold change vs veh, DNAJC13 / RFU, GNAQ / Fold change vs veh, GNAQ / RFU, CDK5R1 / Fold change vs veh, CDK5R1 / RFU, ZRANB3 / Fold change vs veh, ZRANB3 / RFU, CUL4A / Fold change vs veh, CUL4A / RFU, CCNY / Fold change vs veh, CCNY / RFU, UFL1 / Fold change vs veh, UFL1 / RFU, COG3 / Fold change vs veh, COG3 / RFU, DIAPH2 / Fold change vs veh, DIAPH2 / RFU, SKA2 / Fold change vs veh, SKA2 / RFU, AFF3 / Fold change vs veh, AFF3 / RFU, LMF1 / Fold change vs veh, LMF1 / RFU, IPO11 / Fold change vs veh, IPO11 / RFU, DFFB / Fold change vs veh, DFFB / RFU, FOXP1 / Fold change vs veh, FOXP1 / RFU, CARD8 / Fold change vs veh, CARD8 / RFU, STRN3 / Fold change vs veh, STRN3 / RFU, ADK / Fold change vs veh, ADK / RFU, RASSF2 / Fold change vs veh, RASSF2 / RFU, WIPF1 / Fold change vs veh, WIPF1 / RFU, LARP1B / Fold change vs veh, LARP1B / RFU, RASA1 / Fold change vs veh, RASA1 / RFU, RB1 / Fold change vs veh, RB1 / RFU, PPFIA1 / Fold change vs veh, PPFIA1 / RFU, MAT2A / Fold change vs veh, MAT2A / RFU, CCT5 / Fold change vs veh, CCT5 / RFU, WDR92 / Fold change vs veh, WDR92 / RFU, CUX1 / Fold change vs veh, CUX1 / RFU, TTC7A / Fold change vs veh, TTC7A / RFU, TMEM135 / Fold change vs veh, TMEM135 / RFU, DEPTOR / Fold change vs veh, DEPTOR / RFU, CPM / Fold change vs veh, CPM / RFU, DNAJB6 / Fold change vs veh, DNAJB6 / RFU, CACNA2D3 / Fold change vs veh, CACNA2D3 / RFU, DTX4 / Fold change vs veh, DTX4 / RFU, TFCP2 / Fold change vs veh, TFCP2 / RFU, GMCL1 /// GMCL1P1 / Fold change vs veh, GMCL1 /// GMCL1P1 / RFU, AEBP2 / Fold change vs veh, AEBP2 / RFU, SNHG1 /// SNORD22 /// SNORD25 /// SNORD26 /// SNORD27 /// SNORD28 /// SNORD29 /// SNORD31 / Fold change vs veh, SNHG1 /// SNORD22 /// SNORD25 /// SNORD26 /// SNORD27 /// SNORD28 /// SNORD29 /// SNORD31 / Fold change (Aza/veh), C12orf56 (ProbeSet 11735607_a_at) / Fold change (ACY-1035/veh), C12orf56 (ProbeSet 11735607_a_at) / Fold change (Aza/veh), FGFR1OP (ProbeSet 11751329_s_at) / Fold change (ACY-1035/veh), FGFR1OP (ProbeSet 11751329_s_at) / Fold change (Aza/veh), VPS36 (ProbeSet 11739960_a_at) / Fold change (ACY-1035/veh), VPS36 (ProbeSet 11739960_a_at) / RFU SYPL1 (11715823_x_at) / Fold change /veh SYPL1 (11715823_x_at) / RFU IGFBP7 (11715501_s_at) / Fold change /veh IGFBP7 (11715501_s_at) / RFU REEP3 (11722064_at) / Fold change /veh REEP3 (11722064_at) / RFU IGLL1 (11728026_x_at) / Fold change /veh IGLL1 (11728026_x_at): dose or concentration left out as unconfirmed
Conditions: MV-4-11 cells, 48 hours

`Nc1ncn([C@@H]2O[C@H](CO)[C@@H](O)[C@H]2O)c(=O)n1` [azacitidine] was tested, and the “RFU PRF1 (11729649_at)” value was 19.15 RFU.
